Data on 26 compounds can be found in patent publication US11129827B2 (priority 2017, dated 2021).

As a reminder, the IC50 is the midpoint of a concentration-inhibition curve.

The target of one assay is FAAH (Homo sapiens (Human), UniProt O00519). As to the kind of experiment: biochemical. The settings on record: for inhibition at 1 µM: read-out: FAAH (human) % inh. 1 μM.
In another assay the target is MAGL (Homo sapiens (Human), UniProt Q99685). As to the kind of experiment: biochemical. The settings on record: for inhibition at 1 µM: read-out: MAGL (human) % inh. 1 μM.

Like-named read-outs stand apart in the source and are kept apart here. Some results are limits rather than exact numbers.

As for `O=C(Oc1cncc(C(F)(F)F)c1)N1CCC2(CC1)CN(Cc1cccc(Oc3ccc(C(F)(F)F)nc3)c1)C2` [Example 39, 5-(Trifluoromethyl)pyridin-3-yl 2-(3-((6-(trifluoromethyl)pyridin-3-yl)oxy)benzyl)-2,7-diazaspiro[3.5]nonane-7-carboxylate], the inhibition at 1 µM at FAAH and at MAGL was greater than 75% each time. The IC50 on FAAH (read-out: FAAH (human) IC50) and on MAGL (read-out: MAGL (human) IC50) was 100 to 1000 nM each time.

Turning to `O=C(Oc1cncc(C(F)(F)F)c1)N1CCC2(CC1)CN(Cc1cccc(Oc3cc(Cl)cc(Cl)c3)c1)C2` [Example 35, 5-(Trifluoromethyl)pyridin-3-yl 2-(3-(3,5-dichlorophenoxy)benzyl)-2,7-diazaspiro[3.5]nonane-7-carboxylate], the inhibition at 1 µM at FAAH and on MAGL was greater than 75% each time.

For the compound `N#Cc1cncc(OC(=O)N2CCN(Cc3cccc(Oc4ncccn4)c3)CC2)c1` [Example 50, 5-Cyanopyridin-3-yl 4-(3-(pyrimidin-2-yloxy)benzyl)piperazine-1-carboxylate], the inhibition at 1 µM at FAAH and on MAGL was greater than 75% throughout. Also, the IC50 on FAAH (read-out: FAAH (human) IC50) is 100 to 1000 nM; against MAGL, less than 100 nM.

On to `O=C(Oc1cncc(C(F)(F)F)c1)N1CCC2(CC1)CN(Cc1cccc(Oc3cccc(Cl)c3)c1)C2` [Example 10, 5-(Trifluoromethyl)pyridin-3-yl 2-(3-(3-chlorophenoxy)benzyl)-2,7-diazaspiro[3.5]nonane-7-carboxylate], for which the IC50 on FAAH (read-out: FAAH (human) IC50) and on MAGL (read-out: MAGL (human) IC50) was less than 100 nM throughout.

As for `O=C(Oc1cncc(C(F)(F)F)c1)N1CCC2(CC1)CN(Cc1cccc(Oc3ccc(Cl)cc3)c1)C2` [Example 31, 5-(Trifluoromethyl)pyridin-3-yl 2-(3-(4-chlorophenoxy)benzyl)-2,7-diazaspiro[3.5]nonane-7-carboxylate], the half-maximal inhibitory concentration (IC50) is less than 100 nM on FAAH and 100 to 1000 nM at MAGL (read-out: MAGL (human) IC50).

Consider `O=C(Oc1cncc(C(F)(F)F)c1)N1CCC2(CC1)CN(Cc1ccc(Oc3cncnc3)cc1)C2` [Example 34, 5-(Trifluoromethyl)pyridin-3-yl 2-(4-(pyrimidin-5-yloxy)benzyl)-2,7-diazaspiro[3.5]nonane-7-carboxylate], for which the IC50 against FAAH lay in the range of 1000 to 10000 nM; on MAGL (read-out: MAGL (human) IC50) it was 100 to 1000 nM.

Consider `O=C(Oc1cncc(C(F)(F)F)c1)N1CCC2(CC1)CC(Oc1cccc(C(F)(F)F)c1)C2` [Example 1, 5-(Trifluoromethyl)pyridin-3-yl 2-(3-(trifluoromethyl)phenoxy)-7-azaspiro[3.5]nonane-7-carboxylate], for which the inhibition at 1 µM at FAAH and at MAGL was greater than 75% in each case. For the same compound, the IC50 at FAAH (read-out: FAAH (human) IC50) and at MAGL (read-out: MAGL (human) IC50) was less than 100 nM each time.

Regarding `O=C(Oc1cncc(C(F)(F)F)c1)N1CCC2(CC1)CN(Cc1cccc(Oc3ccnnc3)c1)C2` [Example 33, 5-(Trifluoromethyl)pyridin-3-yl 2-(3-(pyridazin-4-yloxy)benzyl)-2,7-diazaspiro[3.5]nonane-7-carboxylate], the inhibition at 1 µM lay in the range of 25 to 50% on FAAH and 50 to 75% at MAGL.

`CC(C)Oc1cc(CN2CCN(C(=O)Oc3cncc(C(N)=O)c3)[C@@H](C)C2)ccc1Cl` [Example 57, (S)-5-Carbamoylpyridin-3-yl 4-(4-chloro-3-isopropoxybenzyl)-2-methylpiperazine-1-carboxylate]: the inhibition at 1 µM on MAGL was greater than 75%.

Turning to `C[C@@H]1CN(Cc2cccc(Oc3ncccn3)c2)CCN1C(=O)Oc1cncc(C#N)c1` [Example 84, 5-Cyanopyridin-3-yl (R)-2-methyl-4-(3-(pyrimidin-2-yloxy)benzyl)piperazine-1-carboxylate], the inhibition at 1 µM on FAAH and on MAGL was greater than 75% throughout. In addition, the results for the IC50 on FAAH (read-out: FAAH (human) IC50) and against MAGL were 100 to 1000 nM and less than 100 nM, respectively.

On to `NC(=O)c1cncc(OC(=O)N2CCC3(CCN(Cc4cc(Cl)cc(C(F)(F)F)c4)C3)CC2)c1` [Example 3, 5-Carbamoylpyridin-3-yl 2-(3-chloro-5-(trifluoromethyl)benzyl)-2,8-diazaspiro[4.5]decane-8-carboxylate], for which the inhibition at 1 µM on FAAH and on MAGL was greater than 75% in each case. The concentration for half-maximal inhibition (IC50) at FAAH (read-out: FAAH (human) IC50) and at MAGL (read-out: MAGL (human) IC50) was less than 100 nM throughout.

As to `C[C@@H]1CN(Cc2cccc(C(F)(F)F)c2Cl)CCN1C(=O)Oc1cncc(C(N)=O)c1` [Example 66, (R)-5-Carbamoylpyridin-3-yl 4-(2-chloro-3-(trifluoromethyl)benzyl)-2-methylpiperazine-1-carboxylate], the inhibition at 1 µM at FAAH and on MAGL was greater than 75% in each case. Further, the IC50 at FAAH (read-out: FAAH (human) IC50) and at MAGL (read-out: MAGL (human) IC50) was less than 100 nM in each case.

As for `O=C(Oc1cncc(C(F)(F)F)c1)N1CCC2(CC1)CN(Cc1ccc(Cl)c(Oc3ccccc3)c1Cl)C2` [Example 14, 5-(Trifluoromethyl)pyridin-3-yl 2-(2,4-dichloro-3-phenoxybenzyl)-2,7-diazaspiro[3.5]nonane-7-carboxylate], the inhibition at 1 µM on FAAH is 50 to 75%; at MAGL, greater than 75%.

For `O=C(Oc1cncc(C(F)(F)F)c1)N1CCC2(CC1)CC(Oc1cccc(COc3ccc(Cl)cc3)c1)C2` [Example 29, 5-(Trifluoromethyl)pyridin-3-yl 2-(3-((4-chlorophenoxy)methyl)phenoxy)-7-azaspiro[3.5]nonane-7-carboxylate], the IC50 against FAAH was less than 100 nM; at MAGL (read-out: MAGL (human) IC50), 100 to 1000 nM. The inhibition at 1 µM at FAAH and at MAGL was greater than 75% throughout.

`Cc1c(CN2CCN(C(=O)Oc3cncc(C(N)=O)c3)[C@@H](C)C2)cccc1C(F)(F)F` [Example 59, (S)-5-Carbamoylpyridin-3-yl 2-methyl-4-(2-methyl-3-(trifluoromethyl)benzyl)piperazine-1-carboxylate]: the inhibition at 1 µM at FAAH was 50 to 75%; on MAGL it was greater than 75%.

As for `O=C(Oc1cncc(C(F)(F)F)c1)N1CCC2(CC1)CN(Cc1cccc(Oc3cncnc3)c1)C2` [Example 11, 5-(Trifluoromethyl)pyridin-3-yl 2-(3-(pyrimidin-5-yloxy)benzyl)-2,7-diazaspiro[3.5]nonane-7-carboxylate], the IC50 on FAAH (read-out: FAAH (human) IC50) and on MAGL (read-out: MAGL (human) IC50) was 100 to 1000 nM each time.

In the case of `O=C(Oc1cncc(C(F)(F)F)c1)N1CCC2(CC1)CC(Oc1ccc(-c3ccccc3)cc1)C2` [Example 28, 5-(Trifluoromethyl)pyridin-3-yl 2-([1,1′-biphenyl]-4-yloxy)-7-azaspiro[3.5]nonane-7-carboxylate], the inhibition at 1 µM at FAAH and on MAGL was greater than 75% each time. The 50% inhibitory concentration (IC50) at FAAH (read-out: FAAH (human) IC50) and on MAGL (read-out: MAGL (human) IC50) was less than 100 nM throughout.

`O=C(Oc1cncc(C(F)(F)F)c1)N1CCC2(CC1)CN(Cc1cccc(Oc3cccc(Cl)c3)c1Cl)C2` [Example 40, 5-(Trifluoromethyl)pyridin-3-yl 2-(2-chloro-3-(3-chlorophenoxy)benzyl)-2,7-diazaspiro[3.5]nonane-7-carboxylate]: the inhibition at 1 µM at FAAH and at MAGL was greater than 75% in each case. Also, the IC50 on FAAH (read-out: FAAH (human) IC50) is 100 to 1000 nM; at MAGL, less than 100 nM.

Take `CC(C)Oc1cc(Cl)cc(CN2CC3(CCN(C(=O)Oc4cncc(C(F)(F)F)c4)CC3)C2)c1` [Example 24, 5-(Trifluoromethyl)pyridin-3-yl 2-(3-chloro-5-isopropoxybenzyl)-2,7-diazaspiro[3.5]nonane-7-carboxylate]: the inhibition at 1 µM at FAAH and on MAGL was greater than 75% throughout.

On to `O=C(Oc1cncc(C(F)(F)F)c1)N1CCC2(CC1)CC(Oc1cccc(C(=O)N3CCCC3)c1)C2` [Example 26, 5-(Trifluoromethyl)pyridin-3-yl 2-(3-(pyrrolidine-1-carbonyl)phenoxy)-7-azaspiro[3.5]nonane-7-carboxylate], for which the inhibition at 1 µM at FAAH and at MAGL was greater than 75% each time. The figures for the IC50 on FAAH (read-out: FAAH (human) IC50) and on MAGL were 100 to 1000 nM and less than 100 nM, respectively.

Take `NC(=O)c1cncc(OC(=O)N2CCC3(CC2)CN(Cc2cccc(Oc4ccc(Cl)cc4)c2)C3)c1` [Example 5, 5-Carbamoylpyridin-3-yl 2-(3-(4-chlorophenoxy)benzyl)-2,7-diazaspiro[3.5]nonane-7-carboxylate]: the inhibition at 1 µM at FAAH and on MAGL was greater than 75% throughout. The 50% inhibitory concentration (IC50) on FAAH (read-out: FAAH (human) IC50) and at MAGL (read-out: MAGL (human) IC50) was less than 100 nM each time.

Take `O=C(Oc1cncc(C(F)(F)F)c1)N1CCC2(CC1)CN(Cc1cccc(Oc3ccc(C(F)(F)F)cn3)c1)C2` [Example 37, 5-(Trifluoromethyl)pyridin-3-yl 2-(3-((5-(trifluoromethyl)pyridin-2-yl)oxy)benzyl)-2,7-diazaspiro[3.5]nonane-7-carboxylate]: the inhibition at 1 µM at FAAH and on MAGL was greater than 75% each time.

Take `O=C(Oc1cncc(C(F)(F)F)c1)N1CCC2(CC1)CC(Oc1cc(Cl)cc(Cl)c1)C2` [Example 25, 5-(Trifluoromethyl)pyridin-3-yl 2-(3,5-dichlorophenoxy)-7-azaspiro[3.5]nonane-7-carboxylate]: the inhibition at 1 µM at FAAH and at MAGL was greater than 75% throughout. The IC50 on FAAH (read-out: FAAH (human) IC50) was 100 to 1000 nM; at MAGL it was less than 100 nM.

On to `Cc1c(OC(=O)N2CCN(Cc3cccc(C(F)(F)F)c3C)C[C@H]2C)cncc1C(N)=O` [Example 82, 5-Carbamoyl-4-methylpyridin-3-yl (R)-2-methyl-4-(2-methyl-3-(trifluoromethyl)benzyl)piperazine-1-carboxylate], for which the inhibition at 1 µM on FAAH was greater than 75%; at MAGL, 0 to 25%.

For `O=C(Oc1cncc(C(F)(F)F)c1)N1CCN(Cc2cc(Cl)ccc2C(F)(F)F)CC1` [Example 44, 5-(Trifluoromethyl)pyridin-3-yl 4-(5-chloro-2-(trifluoromethyl)benzyl)piperazine-1-carboxylate], the inhibition at 1 µM at FAAH and on MAGL was greater than 75% each time. Besides, the IC50 on FAAH (read-out: FAAH (human) IC50) and on MAGL (read-out: MAGL (human) IC50) was 100 to 1000 nM each time.

For the compound `CC(C)Oc1cccc(CN2CC3(CCN(C(=O)Oc4cncc(C(F)(F)F)c4)CC3)C2)c1` [Example 22, 5-(Trifluoromethyl)pyridin-3-yl 2-(3-isopropoxybenzyl)-2,7-diazaspiro[3.5]nonane-7-carboxylate], the results for the inhibition at 1 µM on FAAH and on MAGL were 50 to 75% and 25 to 50%, respectively.
